# Results reported in patent US11596716B2, “Compounds and matrices for use in bone growth and repair” (Human BioMolecular Research Institute, priority 2013, dated 2023).
# System: C2C12 cells
# Test: Alkaline Phosphatase (ALP) functional activity assay in C2C12 cells
# Format: cell-based, Mouse
# Details: normalized to DMSO treatment; for activation at 0.5 µM: Mus musculus, C2C12, 144 h
# Procedure: Alkaline Phosphatase (ALP) Functional Activity Assay: C2C12 cells were plated into 12-well plates with 7,000 cells/well in 1 mL growth media. […] 1, 2, 3, or 4 in 0.1% DMSO was added (500 nM). Half the media was exchanged with fresh media containing compound every 48 hrs. After 6 days, media was removed, ALP Lysis Buffer (10 mM Tris-HCl pH 8.0, 1 mM MgCl2, and 1% Triton X100) added, and cell lysate obtained (10 min incubation at RT) by centrifugation (5 min at 3500× g at 4° C.). Para-nitrophenol phosphate (pNPP) (2 mg/mL) was incubated with 50 μl cell lysate (10 mins, 37° C.). After addition of […] 0.02 N NaOH, absorbance OD405 was measured. Protein concentration was determined by Bradford protein assay. Results of ALP activity were plotted as nM pNP hydrolyzed/mg total protein. After normalizing control samples (i.e., DMSO-treated samples) to one-fold, the fold-changes were plotted to indicate the relative ALP activity. […] This protocol was applied to hMSC and E15 cells as well.
# [1] = compounds of Formula VI, absence of matrix
# [2] = compounds of Formula VI, presence of calcium phosphate matrix
# [3] = compounds of Formula II or IV, absence of matrix
# [4] = compounds of Formula II or IV, presence of calcium phosphate matrix
compound,measurement,setting,value
"COc1cc(C=CC(=O)C2CCCC(=Cc3ccc(OC(=O)C(N)CCCCN)c(OC)c3)C2=O)ccc1OC(=O)C(N)CCCCN (stereo not shown) [Compound 80, 4-(3-(3-(4-(2,6-diaminohexanoyloxy)-3-methoxybenzylidene)-2-oxocyclohexyl)-3-oxoprop-1-enyl)-2-methoxyphenyl bis(2,6-diaminohexanoate)]",ALP activity −matrix,[1],− (<5%)
same,ALP activity +matrix,[2],+ (5-50%)
"C[C@H]1C[C@H](Nc2ccccc2)c2ccccc2N1 (relative stereo) [Compound 8, trans-2-methyl-N-phenyl-1,2,3,4-tetrahydroquinolin-4-amine]",activation at 0.5 µM,[3],5 to 50%
same,activation at 0.5 µM,[4],5 to 50%
"CC(=O)N1c2ccc(F)cc2[C@H](Nc2ccc(F)cc2)C[C@@H]1C (relative stereo) [Compound 21, cis-1-acetyl-2-methyl-6-fluoro-N-(p-fluorophenyl)-1,2,3,4-tetrahydroquinolin-4-amine]",activation at 0.5 µM,[3],5 to 50%
same,activation at 0.5 µM,[4],5 to 50%
"NCCCCC(N)C(=O)Oc1ccc(C=CC(=O)CC(=O)C=Cc2ccc(OC(=O)C(N)CCCCN)cc2)cc1 [Compound 69, (2S,2′S)—O,O′-(3,5-Dioxohepta-1,6-diene-1,7-diyl)bis(4,1-phenylene) bis(2,6-bis-amino)hexanoate]",ALP activity −matrix,[1],− (<5%)
same,ALP activity +matrix,[2],+ (5-50%)
"COc1ccc(F)cc1C=CC(=O)C=C(O)C=Cc1cc(F)ccc1OC [Compound 53, 1,7-Bis-(5-fluoro-2-methoxyphenyl)-5-Hydroxy-hepta-1,4,6-trien-3-one]",activation at 0.5 µM,[1],< 5%
same,activation at 0.5 µM,[2],< 5%
"CN(C)c1ccc(C=CC(=O)C2CCCC(=Cc3ccc(N(C)C)cc3)C2=O)cc1 (stereo not shown) [Compound 57, 2-(4-N,N-dimethylaminobenzylidene)-6-(3-(4-N,N-dimethylaminophenyl)acryloyl)cyclohexanone]",ALP activity −matrix,[1],− (<5%)
same,ALP activity +matrix,[2],++ (50-100%)
"cis-1-acetyl-4-(phenylamino)-1,2,3,4-tetrahydroquinoline [Compound 20]",ALP activity −matrix,[3],− (<5%)
same,ALP activity +matrix,[4],++ (50-100%)
"Cc1ccc(N[C@@H]2C[C@H](C)N(C(=O)c3ccccc3)c3ccc(C)cc32)cc1 (relative stereo) [Compound 18, cis-1-benzoyl-2,6-dimethyl-N-(p-methylphenyl)-1,2,3,4-tetrahydroquinolin-4-amine]",activation at 0.5 µM,[3],> 100%
same,activation at 0.5 µM,[4],< 5%
"COc1ccc(C=CC(=O)C=C(O)C=Cc2ccc(OC)c(O)c2)cc1O [Compound 48, 5-Hydroxy-1,7-bis-(3-hydroxy-4-methoxyphenyl)-hepta-1,4,6-trien-3-one]",activation at 0.5 µM,[1],> 100%
same,activation at 0.5 µM,[2],< 5%
"COc1cc(N(C)C)ccc1C=CC(=O)C=C(O)C=Cc1ccc(N(C)C)cc1OC [Compound 39, 1,7-Bis(4-dimethylamino-2-methoxyphenyl). 5-hydroxy-hepta-1,4,6-trien-3-one]",ALP activity −matrix,[1],+++ (>100%)
same,ALP activity +matrix,[2],− (<5%)
"COc1ccc(N[C@H]2C[C@H](C)Nc3ccc(OC)cc32)cc1 (relative stereo) [Compound 12, trans-2-methyl-6-methoxy-N-(p-methoxyphenyl)-1,2,3,4-tetrahydroquinolin-4-amine]",activation at 0.5 µM,[3],> 100%
same,activation at 0.5 µM,[4],5 to 50%
"O=C(CCc1ccc(O)cc1)C1CCCC(Cc2ccc(O)cc2)C1=O (stereo not shown) [Compound 62, 2-(4-Hydroxybenzyl)-6-(3-(4-hydroxyphenyl)propanoyl)cyclohexanone]",activation at 0.5 µM,[1],< 5%
same,activation at 0.5 µM,[2],5 to 50%
"COc1cc(C=CC(=O)C=C(O)C=Cc2ccc(OC(=O)[C@@H](N)C(C)C)c(OC)c2)ccc1OC(=O)[C@@H](N)C(C)C [Compound 71, (2S,2′S)—O,O′-(3-hydroxy-5-oxohepta-1,3,6-triene-1,7-diyl)bis(2-methoxy-4,1-phenylene) bis(2-amino-3-methylbutanoate)]",ALP activity −matrix,[1],+ (5-50%)
same,ALP activity +matrix,[2],+ (5-50%)
"O=C(C=Cc1ccc(O)cc1)C1CCCC(=Cc2ccc(O)cc2)C1=O (stereo not shown) [Compound 55, 2-(4-Hydroxybenzylidene)-6-(3-(4-hydroxyphenyl)acryloyl)-cyclohexanone]",activation at 0.5 µM,[1],5 to 50%
same,activation at 0.5 µM,[2],5 to 50%
"C[C@H]1C[C@H](Nc2ccc(F)cc2)c2cc(F)ccc2N1C(=O)c1ccccc1 (relative stereo) [Compound 24, trans-1-benzoyl-2-methyl-6-fluoro-N-(p-fluorophenyl)-1,2,3,4-tetrahydroquinolin-4-amine]",activation at 0.5 µM,[3],50 to 100%
same,activation at 0.5 µM,[4],< 5%
"COc1cc(N(C)C)ccc1C=CC(=O)C1CCCC(=Cc2ccc(N(C)C)cc2OC)C1=O (stereo not shown) [Compound 59, 2-(4-N,N-dimethylamino-2-methoxybenzylidene)-6-(3-(4-N,N-dimethylamino-2-methoxyphenyl)acryloyl)cyclohexanone]",ALP activity −matrix,[1],− (<5%)
same,ALP activity +matrix,[2],++ (50-100%)
"COc1cc(C=CC(=O)C2CCCC(=Cc3ccc(O)c(OC)c3)C2=O)ccc1O (stereo not shown) [Compound 58, 2-(4-Hydroxy-3-methoxybenzylidene)-6-(3-(4-hydroxy-3-methoxyphenyl)acryloyl)cyclohexanone]",activation at 0.5 µM,[1],5 to 50%
same,activation at 0.5 µM,[2],5 to 50%
"C[C@H]1C[C@H](N(C(=O)c2ccccc2)c2ccc(F)cc2)c2cc(F)ccc2N1C(=O)c1ccccc1 (relative stereo) [Compound 29, trans-1-benzoyl-2-methyl-6-fluoro-N-(p-fluorophenyl)-N-benzoyl-1,2,3,4-tetrahydroquinolin-4-amine]",activation at 0.5 µM,[3],> 100%
same,activation at 0.5 µM,[4],< 5%
"O=C(C=CC1CCCCC1)C1CCCC(=CC2CCCCC2)C1=O (stereo not shown) [Compound 64, 2-(3-Cyclohexylacryloyl)-6-(cyclohexylmethylene)cyclohexanone]",activation at 0.5 µM,[1],5 to 50%
same,activation at 0.5 µM,[2],5 to 50%
"Cc1ccc(N[C@H]2C[C@H](C)Nc3ccc(C)cc32)cc1 (relative stereo) [Compound 6, trans-2,6-dimethyl-N-(p-methylphenyl)-1,2,3,4-tetrahydroquinolin-4-amine]",activation at 0.5 µM,[3],50 to 100%
same,activation at 0.5 µM,[4],< 5%
"C[C@H]1C[C@@H](Nc2ccc(F)cc2)c2cc(F)ccc2N1C(=O)c1ccccc1 (relative stereo) [Compound 23, cis-1-benzoyl-2-methyl-6-fluoro-N-(p-fluorophenyl)-1,2,3,4-tetrahydroquinolin-4-amine]",activation at 0.5 µM,[3],50 to 100%
same,activation at 0.5 µM,[4],5 to 50%
"Cc1ccc(N[C@@H]2C[C@H](C)Nc3ccc(C)cc32)cc1 (relative stereo) [Compound 5, cis-2,6-dimethyl-N-(p-methylphenyl)-1,2,3,4-tetrahydroquinolin-4-amine]",activation at 0.5 µM,[3],5 to 50%
same,activation at 0.5 µM,[4],5 to 50%
"CC(C)[C@H](NC(=O)OC(C)(C)C)C(=O)Oc1ccc(C=CC(O)=CC(=O)C=Cc2ccc(O)cc2)cc1 [Compound 83, (S)-4-(3-hydroxy-7-(4-hydroxyphenyl)-5-oxohepta-1,3,6-trienyl)phenyl 2-N-Boc-amino-3-methylbutanoate]",ALP activity −matrix,[1],+ (5-50%)
same,ALP activity +matrix,[2],− (<5%)
"Cc1ccc(N[C@H]2C[C@H](C)N(C(=O)c3ccccc3)c3ccc(C)cc32)cc1 (relative stereo) [Compound 19, trans-1-benzoyl-2,6-dimethyl-N-(p-methylphenyl)-1,2,3,4-tetrahydroquinolin-4-amine]",activation at 0.5 µM,[3],< 5%
same,activation at 0.5 µM,[4],< 5%
"COc1ccc(C(=O)N2c3ccc(F)cc3[C@@H](Nc3ccc(F)cc3)C[C@@H]2C)cc1 (relative stereo) [Compound 26, trans-1-(p-methoxybenzoyl)-2-methyl-6-fluoro-N-(p-fluorophenyl)-1,2,3,4-tetrahydroquinolin-4-amine]",activation at 0.5 µM,[3],< 5%
same,activation at 0.5 µM,[4],50 to 100%
"CC(=O)N1c2ccc(F)cc2[C@@H](Nc2ccc(F)cc2)C[C@@H]1C (relative stereo) [Compound 22, trans-1-acetyl-2-methyl-6-fluoro-N-(p-fluorophenyl)-1,2,3,4-tetrahydroquinolin-4-amine]",activation at 0.5 µM,[3],5 to 50%
same,activation at 0.5 µM,[4],< 5%
"CN(C)c1ccc(C=CC(=O)C=C(O)C=Cc2ccc(N(C)C)cc2)cc1 [Compound 47, 1,7-Bis-(4-dimethylaminophenyl)-5-hydroxy-hepta-1,4,6-trien-3-one]",activation at 0.5 µM,[1],> 100%
same,activation at 0.5 µM,[2],< 5%
"(2S,2′S)4-(3-(3-(4-(2-amino-3-methylbutanoyloxy)-3-methoxybenzylidene)-2-oxocyclohexyl)-3-oxoprop-1-enyl)-2-methoxyphenyl bis(2-(tert-butoxycarbonylamino)-3-methylbutanoate) [Compound 78]",ALP activity −matrix,[1],− (<5%)
same,ALP activity +matrix,[2],+ (5-50%)
"Cc1ccc(N[C@H]2C[C@H](C)N(C(=O)C(C)C)c3ccc(C)cc32)cc1 (relative stereo) [Compound 15, trans-1-(2-propylcarbonyl)-2,6-dimethyl-4-(4-methylphenylamino)-1,2,3,4-tetrahydroquinoline]",activation at 0.5 µM,[3],< 5%
same,activation at 0.5 µM,[4],50 to 100%
